Activity calls are given as the source filed them. How the calls were made is not given here.

This assay deals with Influenza A virus M2 proton channel (A/TW/4845/1999 H1N1). The assay can be described thus: NMR binding screen, influenza A virus M2 proton channel, Kd (AID 1549). The conditions noted are these: M2 protein.
A word on the Kd: it is the concentration at which binding is half-saturated. Take `CC(=O)c1c(C)nc2ccccc2c1N`: the Kd is > 4 mM (inactive).
For the molecule `CC(=O)c1cc(C(N)=O)c(=S)[nH]c1C`, the Kd was > 4 mM (inactive).
Turning to `O=C(CN1C(=O)c2cccc3cccc(c23)C1=O)NO`, the Kd was > 4 mM (inactive).
In the case of `CC(=O)c1ccc(NC(=S)N2CCC(O)CC2)cc1`, the Kd was > 4 mM (inactive).
For `CN(Cc1nc2ccccc2n1C)C(=O)c1cccs1`, the Kd was > 4 mM (inactive).
Take `CC(=O)Nc1ccc(-c2nc(C)c(C(C)=O)n2O)cc1`: the Kd is > 4 mM (inactive).
Regarding `Oc1cc(O)cc(/C=C/c2ccccc2)c1`, the Kd was > 4 mM (inactive).
Regarding `CCCCC(Nc1n[nH]c(=O)[nH]c1=O)C(=O)O` (stereo not drawn), the Kd was > 4 mM (inactive).
Regarding `CCOc1nc(C)ccc1-c1noc(-c2ccncc2)n1`, the Kd is > 4 mM (inactive).
The result for `CS(=O)(=O)c1cccc(C(=O)Nc2nccs2)c1` reads > 4 mM (inactive); that for `CN1CCCn2c1nc1c2c(=O)[nH]c(=O)n1C`, > 4 mM (inactive); that for `O=C1NCCCC1C(=O)N1CCCCC1` (stereo not drawn), > 4 mM (inactive).
Take `CN1C(=O)C2CC=C(Cl)CC2C1=O` (stereo not drawn): the Kd is > 4 mM (inactive).
For `CC(=O)c1c(O)c(C)c(O)c2c1OC1=CC(=O)C(C(C)=O)C(=O)C12C` (stereo not drawn) the value was > 4 mM (inactive); for `NC(Cc1c[nH]c2ccccc12)C(=O)O` (stereo not drawn), > 4 mM (inactive).
The result for `CCCCCC(=O)Cc1cc(O)cc(O)c1C(=O)Oc1cc(CC(=O)CCCCC)c(C(=O)O)c(OC)c1` reads > 4 mM (inactive).
The result for `O=C(O)C1=Cc2ccccc2OC1` reads > 4 mM (inactive); that for `COc1ccc(S(=O)(=O)N2CCC(C(N)=O)CC2)cc1`, > 4 mM (inactive); that for `COc1ccc2nc(N)sc2c1`, > 4 mM (inactive).
On to `O=C(OCc1c(Cl)cccc1Cl)c1cnccn1`, for which the Kd is > 4 mM (inactive).
For `O=c1cc(-c2ccccc2)oc2cc(O)cc(O)c12` the value was > 4 mM (inactive).
With `NC(=O)C1CCN(C(=O)c2ccccc2)CC1`, the Kd was > 4 mM (inactive).
`S=c1nc(Cc2ccccc2)[nH][nH]1`: the Kd is > 4 mM (inactive).
`CC(NC(=O)c1ccco1)c1ccc2c(c1)OCCO2` (stereo not drawn): the Kd was > 4 mM (inactive).
As for `CC(C)(C)CC(=O)N1CCC(C(N)=O)CC1`, the Kd is > 4 mM (inactive).
For `COCC(=O)Nc1c(C(N)=O)oc2ccccc12`, the Kd is > 4 mM (inactive).
As for `CC(C)CCCC(C)C1CCC2C3C[C@@H](O)[C@@]4(O)C[C@@H](O)CC[C@]4(C)C3CC[C@]12C` (stereo partly drawn), the Kd was > 4 mM (inactive).
Regarding `NC(=O)c1ccc(C(N)=O)cc1`, the Kd was > 4 mM (inactive).
As to `CC(C)(C)Cc1nc(-c2ccccn2)no1`, the Kd is > 4 mM (inactive).
The result for `O=C1c2ccccc2C(=O)N1CCc1ccccn1` reads > 4 mM (inactive); that for `c1ccc2c(c1)ncn2CCn1cnc2ccccc21`, > 4 mM (inactive); that for `NC(=S)N1CCC(c2ccccc2)=N1`, > 4 mM (inactive).
`Cc1cc(C(=O)NCc2ccco2)cs1`: the Kd was > 4 mM (inactive).
For `O=C1NC(=Nc2ccccc2Cl)SC1(CO)CO` the value was > 4 mM (inactive); for `Nc1ccc2[nH]ncc2c1`, > 4 mM (inactive).
Consider `COc1cccc(C(=O)N2CCOCC2)c1`, for which the Kd is > 4 mM (inactive).
As to `CN(C)CCCN1CNC(=S)NC1`, the Kd is > 4 mM (inactive).
On to `O=C(Cn1cnc2ccccc2c1=O)N1CCOCC1`, for which the Kd is > 4 mM (inactive).
On to `COc1ccc(NC(=O)/C=N/O)cc1`, for which the Kd was > 4 mM (inactive).
For `c1ccc(CCN2CCN(CCc3ccccn3)CC2)nc1` the value was > 4 mM (inactive).
As to `O=S1(=O)CCC(NC(=S)N2CCOCC2)C1` (stereo not drawn), the Kd was > 4 mM (inactive).
The result for `NC(=O)c1ccc(N2C(=O)C=CC2=O)cc1Cl` reads > 4 mM (inactive).
Regarding `CC(=O)Nc1ccc(NC(=O)N2CCOCC2)cc1`, the Kd was > 4 mM (inactive).
Regarding `CC(=O)Nc1ccc(Cl)c(C(N)=O)c1`, the Kd is > 4 mM (inactive).
The result for `O=C1CCCC2C3CC(CN12)[C@@H]1CCCCN1C3` (stereo partly drawn) reads > 4 mM (inactive).
As to `COc1ccc(C)cc1S(=O)(=O)Nc1ccccc1C`, the Kd was > 4 mM (inactive).
Turning to `Fc1ccc(CN2CCCNCC2)cc1`, the Kd is > 4 mM (inactive).
For `Nc1ccc(N2CCCCC2)cc1` the value was > 4 mM (inactive); for `CN1CCN(CC(=O)N2CCc3ccccc32)CC1`, > 4 mM (inactive); for `O=C(O)C1CCCCN1Cc1ccccc1` (stereo not drawn), > 4 mM (inactive).
For `CC(=O)C1=C(O)C(=O)NC1c1ccccc1` (stereo not drawn) the value was > 4 mM (inactive); for `O=C(O)c1cccnc1-c1nc2ccccc2s1`, > 4 mM (inactive).
With `Cn1ncc(C(=O)O)c1-c1ccccc1`, the Kd is > 4 mM (inactive).
As to `OCc1ccccc1CN1CCOCC1`, the Kd is > 4 mM (inactive).
For `O=S1(=O)CCC2CC=CCC21` (stereo not drawn) the value was > 4 mM (inactive); for `COC(=O)[C@]1(C)CC[C@]2(C)CC[C@]3(C)C4=CCc5c(cc(O)c(O)c5C)[C@]4(C)CC[C@@]3(C)C2C1` (stereo partly drawn), > 4 mM (inactive); for `Cc1cc(C)nc(Nc2n[nH]c(Cc3ccccc3)n2)n1`, > 4 mM (inactive).
Turning to `OC1CCCN(Cc2ccccc2)C1` (stereo not drawn), the Kd is > 4 mM (inactive).
For `COc1c2ccccc2nc2occc12`, the Kd was > 4 mM (inactive).
As to `Cc1nc(-c2ccccc2)ncc1C(=O)O`, the Kd was > 4 mM (inactive).
For `Nc1ncnc(NCCO)c1[N+](=O)[O-]` the value was > 4 mM (inactive); for `COC1(C)CCC2OC2(C)CCC2C1CC2(C)C` (stereo not drawn), > 4 mM (inactive); for `CN1CCc2c(sc(N)c2C#N)C1`, > 4 mM (inactive).
Regarding `COc1ccc(S(=O)(=O)NCCO)cc1`, the Kd is > 4 mM (inactive).
For the molecule `c1ccc(SCc2nc(-c3ccncc3)no2)cc1`, the Kd is > 4 mM (inactive).
`Cc1cc2c(N)cccc2nn1`: the Kd was > 4 mM (inactive).
For the molecule `COCc1nc(-c2cc(Br)ccc2OC)no1`, the Kd is > 4 mM (inactive).
For `Cc1c(C(=O)Nc2ccccn2)oc2ccccc12` the value was > 4 mM (inactive); for `CC1CN(C(=O)c2ccncc2)CC(C)O1` (stereo not drawn), > 4 mM (inactive).
For `O=c1cc(CO)oc(CN2CCCCC2)c1O` the value was > 4 mM (inactive).
For the molecule `Cc1nc2nc(-c3ccco3)nn2c(C)c1Cl`, the Kd was > 4 mM (inactive).
With `C=C(C)C1Cc2c(ccc(C(=O)O)c2O)O1` (stereo not drawn), the Kd was > 4 mM (inactive).
For `Fc1cccc(Cl)c1CN1CCCNCC1`, the Kd was > 4 mM (inactive).
With `O=C1CCNc2ccccc2N1`, the Kd is > 4 mM (inactive).
Turning to `O=c1c2ccccc2nc2n1CCCCN2`, the Kd is > 4 mM (inactive).
`O=C(Nc1ccccc1N1CCCC1)c1cccnc1`: the Kd is > 4 mM (inactive).
The result for `COc1cccc(N2CCN(C(=O)c3cccnc3)CC2)c1` reads > 4 mM (inactive).
For the molecule `CCCCN1C(=O)N(C)C2NC(=O)NC21` (stereo not drawn), the Kd is > 4 mM (inactive).
As to `O=C(Nc1ccc(O)cc1)N1CCOCC1`, the Kd was > 4 mM (inactive).
For `COC(=O)[C@@H]1OC(=O)C2OC23[C@@]1(C)CCC1[C@@]2(C)CCC(=O)C(C)(C)C2C[C@@H](OC(C)=O)[C@]13C` (stereo partly drawn), the Kd is > 4 mM (inactive).
Take `COc1c2ccoc2nc2c(OC)c(OCC(O)C(C)(C)O)ccc12` (stereo not drawn): the Kd is > 4 mM (inactive).
The result for `COC(=O)c1c(OC)cc2c(c1C)Oc1c(Cl)c(OC(C)=O)c(Cl)c(C)c1C(=O)O2` reads > 4 mM (inactive).
With `O=C1CNc2cc(C(=O)O)ccc2N1`, the Kd was > 4 mM (inactive).
`O=C(O)c1ccc(Oc2ccccc2)nc1`: the Kd is > 4 mM (inactive).
Turning to `Cc1cc(=O)c2c(O)c(C)c(O)cc2o1`, the Kd was > 4 mM (inactive).
As to `CN=C(c1ccc([N+](=O)[O-])cc1)N(C)C`, the Kd was > 4 mM (inactive).
Consider `O=c1c(-c2ccc(O)cc2)coc2cc(O)ccc12`, for which the Kd was > 4 mM (inactive).
Consider `C=CCN1CC[C@]23c4c5ccc(O)c4OC2C(=O)CC[C@@]3(O)[C@H]1C5` (stereo partly drawn), for which the Kd was > 4 mM (inactive).
`Cc1ccccc1CSc1nncn1N`: the Kd was > 4 mM (inactive).
In the case of `O=S(=O)(c1cccc2cccnc12)N1CCOCC1`, the Kd is > 4 mM (inactive).
For `CC(C)/C(O)=C1/C(=O)O[C@@H](c2ccoc2)[C@]2(C)C(O)[C@@H](O)[C@@]34OC5(C)OC67CC(C)(C(O)[C@]6(O)[C@@H](O)[C@]3(O5)C12)[C@H](CC(=O)O)[C@]74C` (stereo partly drawn) the value was > 4 mM (inactive).
The result for `Nc1nsc(-c2ccccc2)n1` reads > 4 mM (inactive); that for `O=C(O)c1cncc(-c2ccccc2)c1`, > 4 mM (inactive); that for `CCOc1ccc(-c2n[nH]c(=S)n2C)cc1`, > 4 mM (inactive).
On to `O=c1cc(-c2ccc(O)cc2)oc2cc(O[C@@H]3O[C@H](CO)[C@@H](O)[C@H](O)[C@H]3O[C@@H]3OC[C@](O)(CO)[C@H]3O)cc(O)c12`, for which the Kd was > 4 mM (inactive).
Consider `O=C1c2ccccc2C(=O)N1Cc1ccco1`, for which the Kd is > 4 mM (inactive).
In the case of `O=C1CC(c2c[nH]c3ccccc23)C(=O)N1` (stereo not drawn), the Kd is > 4 mM (inactive).
As to `O=C1CC(=O)N(Cc2ccco2)C(=S)N1`, the Kd was > 4 mM (inactive).
As to `O=c1[nH]nc(Cc2ccncc2)c2ccccc12`, the Kd is > 4 mM (inactive).
For `O=c1c(O)cc([C@H]2Oc3cc(O)cc(O)c3C[C@H]2O)cc2c([C@H]3Oc4cc(O)cc(O)c4C[C@H]3O)cc(O)c(O)c12`, the Kd was > 4 mM (inactive).
On to `Cc1nc2ccccc2c(=O)n1/N=C/c1ccncc1`, for which the Kd was > 4 mM (inactive).
For `C=CCn1c(N)c(C(=O)N2CCOCC2)sc1=S` the value was > 4 mM (inactive); for `CCOC(=O)CSc1nnc(C)c(=O)[nH]1`, > 4 mM (inactive).

(Values after PubChem BioAssay AID1549 (Sanford-Burnham Center for Chemical Genomics, 2009).)
